Series [1] can be described thus: Solubility / dissolution of I and of mixtures of I and sodium thiosulphate pentahydrate. Type of series: physicochemical. Conditions: for solubility in weaker ethanol: weaker than 50% ethanol. As to the method: Mixtures of I and thiosulphate must not however, be heated in solution above 50° C., since otherwise the trimethaphan cation can decompose.
Therefore, the problem arose to find a physiologically acceptable solvent in which a mixture of I and thiosulphate in the weight ratio of about 1:1 to about 1:40 can dissolve to at least 5-10%, in a temperature range which for practical reasons should embrace temperatures between about 15° C. and about 35° C. Moreover, the concentrated solution should be able to dissolve without problem in the amount (250-1000 ml) of physiological sodium chloride solution or isotonic (5%) glucose solution required for final dilution.
For example, the mixture of 50 mg of I and 1000 mg of sodium thiosulphate pentahydrate dissolved

In a further series the test system is rats. The following applies: i.v.; cited from earlier work.
Series [2] concerns blood pressure. Kind of series: Infusion dosage required to achieve a given lowering of the blood pressure in a cat under Nembutal narcosis (Table I, FIG. 4). Conditions: for Infusion dosage required for lowering of blood pressure / Infusion dosage required for lowering of blood pressure (symbol): i.v. infusion. The series is classed as in vivo. Set-up: key to Infusion dosage required for lowering of blood pressure (symbol): *: Limit of activity and/or predominance of toxic side effects. Here is the method:
This is evident, for example, from the following experiment:
The various infusion solutions listed below were infused i.v. in succession, with appropriate recovery intervals, into a male, spontaneously respiring cat weighing 3.7 kg under Nembutal narcosis, and the dosages required to achieve a given lowering of the blood pressure were determined.
For the preparation of the infusion solutions, the substances or their concentrated stock solutions were diluted with 0.9% sodium chloride solution to a uniform infusion strength of 9 mg/100 ml (90 ug/ml). All solutions were freshly prepared and infused with the exclusion of light (aluminium foil) corresponding to the dosages given below.
The values given in Table I hereinafter were determined graphically.
FIG. 4, a comparison of equieffective doses of A, B, C, D and E, is derived from the figures in Table I, and further indicates the unobvious superiority of infusion solutions having a weight ration of less than 1:10 of the salts.
On the Y-axis, the weight percent of the trimethaphan ion in trimethaphan camsylate needed to achieve the indicated level of hypotension reduction is always set at 100% for each level, indicating the infusion solution of C. The X-axis measures the weight of nitroprusside ion expressed as a weight percent of the trimethaphan ion needed; B, having no trimethaphan, is set at 0 weight percent. The percents for A, D, and E are as indicated.
The hypotenuse of the triangle indicates the hypotensive effect expected to result from using mixtures of nitroprusside and trimethaphan ions. […] The lower and more to the left the values are, the higher the degree of synergism.

Series [3] can be described thus: Solubility of (+)-bis-(trimethaphan)-nitroprusside and its semihydrate (Example 1). Type of series: physicochemical. The text has this:
(§1) The semihydrate forms compact needles from water (1/2H2 O calculated 0.94%, found 1.00%). […] Its solubility in water is 0.2% at room temperature. Its solubility in 60% ethanol is much better, and is about 3% at room temperature.

The format of series [4] is physicochemical. The following applies: room temperature; for storability: light excluded. Here is the method:
as §1
For the preparation of an infusion solution, the ampoule contents are dissolved in at least 220, at most 900 ml of sterile 0.9% sodium chloride solution or 5% glucose solution by vigorous shaking for a short time, whereafter the volume is brought to 250, 500 or 1000 ml. The infusion vessels and tubes are either to be covered with aluminum foil or must consist of material which is opaque to light.
50 mg of finely pulverized (+)-bis-(trimethaphan)-nitroprusside are filled into a sterilized, brown 5 ml flask closable with a synthetic stopper. 3 ml of 60% ethanol are sealed in a solvent ampoule and sterilized. […] Immediately before use the solid substance is dissolved in the solvent and the thus-obtained stock solution is used for the preparation of the infusion solution.

A short description of series [5]: Solubility of SNP, TMC, TNP and mixtures (Example 10). Type of series: physicochemical. The following applies: for solubility of mixtures / TNP: borderline amount of solvent: 50 + 500 mg (1 + 10); for amount of solvent giving clear solution: 22° C., SNP 50 mg, TMC 250 mg. As to the method:
At room temperature (22° C.) clear solutions were obtained in the following solvents from the following compounds: […]

In series [6] the test system is blood pressure. The following applies: TMC; cited from earlier work.
The next series concerns patients. The following applies: infusion in patients; listed as TMC; cited from earlier work.

“Also recorded” adds a separate entry of the source.

As a reminder, the LD50 is the dose at which mortality reaches 50%.

As to `O=S([O-])([O-])=S.[Na+].[Na+]` [sodium thiosulphate, reference compound], in series [1] (especially at temperatures <50° C.), the “solubility in over 40% ethanol” value was “only very limited solubility”. Moreover, the “solubility in weaker ethanol” value in series [1] was “better solubility”. Also, in the series on rats, the LD50 is 2500 mg/kg.

Consider “(+)-bis-/(3aS,8aR,8bR)-1,3-dibenzyldecahydro-2-oxoimidazo[4,5-c]thieno[1,2-a]thiolium/nitrosylpentacyano-ferrate”, for which the “Infusion dosage required for lowering of blood pressure” value in the series with blood pressure [2] (-20 mm Hg, cat) came to 1.5 ug/kg · min; with blood pressure [2] (-30 mm Hg, cat) it was 2.3 ug/kg · min; in the series on blood pressure [2] (-40 mm Hg, cat), 3.5 ug/kg · min; in the series with blood pressure [2] (-50 mm Hg, cat) it was 5.8 ug/kg · min; in the series on blood pressure [2] (-55 mm Hg, cat), 7.8 ug/kg · min; with blood pressure [2] (-75 mm Hg, cat), 40 ug/kg · min. Also, the “limit of activity (in words)” value in the series on blood pressure [2] (compared with all the other substances or mixtures) is given as “significantly higher limit of activity than all the other substances or mixtures”. Besides, the “strength of activity (in words)” value in the series on blood pressure [2] (slight lowering of the blood pressure (to -30 mm Hg)) is on record as “approximately comparable strengths of activity; also recorded: shows up best”. Besides, the “solubility in aqueous ethanol” value in series [3] (aqueous ethanol) is “dissolves readily”. In series [3] (water, absolute ethanol and cyclohexane), the “solubility in water, absolute ethanol and cyclohexane” value is recorded as “only very slightly soluble”. The storability entry in series [4] is “can be stored for a very long time”.

For the compound bis-(trimethaphan)-nitroprusside, in series [1] (ethanol-water, room temperature (22° C.), FIG. 1), the “ethanol concentration required for concentrated stock solution” value is on record as “at least 40%”. Also, the “solubility in water (in words)” value in series [1] (water) is “poorly soluble in water”. In addition, the “solubility in weaker ethanol” value in series [1] is on record as “no longer completely soluble”. In the series with blood pressure [2] (nitroprusside and trimethaphan ions in molar ratio 1:2, FIG. 4 / Table I), the synergistic activity result was “maximum synergistic activity”. In addition, the “solubility of mixtures / TNP: borderline amount of solvent” value in series [5] (5% dextrose, 125 + 500 mg (1 + 4), TNP 40 mg (highly purified product)) was found to be 100 mL; in series [5] (40% ethanol, TNP 40 mg) it was 25 mL; in series [5] (60% ethanol, 125 + 500 mg (1 + 4), TNP 40 mg), 2 mL. Also, in series [4], the storability result was “can be stored without further additives”.

As to “bis-(trimethaphan)-nitroprusside semihydrate”, in series [3] (room temperature), the “solubility in 60% ethanol” value is “about 3%” and the solubility in water worked out at 0.2%. In series [4], the stability at storage entry is reported as “stable” and the “water loss at storage” value was “does not lose water”.

As for `O=C1N(Cc2ccccc2)C2C[S+]3CCCC3C2N1Cc1ccccc1` (stereo not shown) [C, trimethaphan camsylate, reference compound], the “Infusion dosage required for lowering of blood pressure” value in the series on blood pressure [2] (-20 mm Hg, cat) is on record as 6.0 ug/kg · min; in the series on blood pressure [2] (-30 mm Hg, cat), 18 ug/kg · min; in the series with blood pressure [2] (-40 mm Hg, cat), 55 ug/kg · min. The “Infusion dosage required for lowering of blood pressure (symbol)” value in the series with blood pressure [2] (-50 mm Hg, cat) is reported as “*”; in the series with blood pressure [2] (-55 mm Hg, cat) it was “*”; in the series with blood pressure [2] (-75 mm Hg, cat) it was “*”. Further, the “activity compared with other test substances (in words)” value with blood pressure [2] (cat, comparison among A to E) is given as “significantly less active”. For the same compound, the limit of activity in the series with blood pressure [2] (lowering of blood pressure, cat) is reported as -40 mm Hg. Moreover, the “dosage required for the controlled lowering of blood pressure” value in the series with blood pressure [6] is “about 30 ug/kg or more per minute”. Further, the “amount of solvent giving clear solution” value is 10 mL in series [5] (5% dextrose), 10 mL in series [5] (40% ethanol), 2 mL in series [5] (60% ethanol) and 10 mL in series [5] (water). Further, in the series on patients, the side effects entry was “tachycardia, mydriasis, cycloplegia, urine retention, xerostomia and constipation; also recorded: nausea or vomiting; also recorded: allergies”.

Values taken from US4721707A, “Complex salt” (priority 1982, dated 1988).
